In PubChem BioAssay (NCI):
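Test compounds were applied to cells in 96-well plates for 48 hours at 5 doses. At the GI50, growth is halved. Definition used: TGI = concentration required for complete inhibition of growth.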

Columns and labels:
Assay in all cases: inhibition of tumour cell growth, NCI panel, 48 h
HOP-92 NSCLC = tested on: HOP-92 NSCLC
OVCAR-3 ovarian = tested on: OVCAR-3 ovarian
U251 CNS = tested on: U251 CNS
IGROV1 ovarian = tested on: IGROV1 ovarian
A549 NSCLC = tested on: A549 NSCLC
HS 578T breast = tested on: HS 578T breast
MDA-MB-435 = tested on: MDA-MB-435
RPMI-8226 leukemia = tested on: RPMI-8226 leukemia
CCRF-CEM leukemia = tested on: CCRF-CEM leukemia
SK-OV-3 ovarian = tested on: SK-OV-3 ovarian
CAKI-1 renal = tested on: CAKI-1 renal
NCI/ADR-RES ovarian = tested on: NCI/ADR-RES ovarian
MALME-3M melanoma = tested on: MALME-3M melanoma
HOP-62 NSCLC = tested on: HOP-62 NSCLC
786-0 renal = tested on: 786-0 renal
MOLT-4 leukemia = tested on: MOLT-4 leukemia
SF-268 CNS = tested on: SF-268 CNS
OVCAR-4 ovarian = tested on: OVCAR-4 ovarian
HL-60(TB) leukemia = tested on: HL-60(TB) leukemia
SK-MEL-5 melanoma = tested on: SK-MEL-5 melanoma
NCI-H460 lung = tested on: NCI-H460 lung
MDA-MB-231 breast = tested on: MDA-MB-231 breast
M14 melanoma = tested on: M14 melanoma
NCI-H522 lung = tested on: NCI-H522 lung
NCI-H23 lung = tested on: NCI-H23 lung
SF-539 CNS = tested on: SF-539 CNS
SNB-75 CNS = tested on: SNB-75 CNS
SF-295 CNS = tested on: SF-295 CNS
UO-31 renal = tested on: UO-31 renal
SW-620 colon = tested on: SW-620 colon
RXF 393 renal = tested on: RXF 393 renal
COLO 205 colon = tested on: COLO 205 colon
SR leukemia = tested on: SR leukemia
OVCAR-8 ovarian = tested on: OVCAR-8 ovarian
A498 renal = tested on: A498 renal
KM12 colon = tested on: KM12 colon
HT29 colon = tested on: HT29 colon
BT-549 breast = tested on: BT-549 breast
UACC-257 melanoma = tested on: UACC-257 melanoma
T-47D breast = tested on: T-47D breast
NCI-H226 lung = tested on: NCI-H226 lung
HCT-15 colon = tested on: HCT-15 colon
OVCAR-5 ovarian = tested on: OVCAR-5 ovarian
MCF7 breast = tested on: MCF7 breast
K-562 leukemia = tested on: K-562 leukemia
TK-10 renal = tested on: TK-10 renal
HCT-116 colon = tested on: HCT-116 colon
PC-3 prostate = tested on: PC-3 prostate
SN12C renal = tested on: SN12C renal
SK-MEL-2 melanoma = tested on: SK-MEL-2 melanoma
DU-145 prostate = tested on: DU-145 prostate
UACC-62 melanoma = tested on: UACC-62 melanoma
HCC-2998 colon = tested on: HCC-2998 colon
EKVX NSCLC = tested on: EKVX NSCLC
ACHN renal = tested on: ACHN renal
SK-MEL-28 melanoma = tested on: SK-MEL-28 melanoma
SNB-19 CNS = tested on: SNB-19 CNS

CN1CCN(Cc2ccc(NC(=O)c3cnc(F)c(C#Cc4cnc(N)c5ncccc45)c3)cc2C(F)(F)F)CC1
GI50 (HOP-92 NSCLC): 133 nM
TGI (HOP-92 NSCLC): 1170 nM
GI50 (OVCAR-3 ovarian): 516 nM
TGI (OVCAR-3 ovarian): 9580 nM
GI50 (U251 CNS): 252 nM
TGI (U251 CNS): 13200 nM
GI50 (IGROV1 ovarian): 139 nM
TGI (IGROV1 ovarian): 7480 nM
GI50 (A549 NSCLC): 321 nM
TGI (A549 NSCLC): 11900 nM
GI50 (HS 578T breast): 183 nM
TGI (HS 578T breast): 2110 nM
GI50 (MDA-MB-435): 141 nM
TGI (MDA-MB-435): 6090 nM
GI50 (RPMI-8226 leukemia): 332 nM
TGI (RPMI-8226 leukemia): 22700 nM
GI50 (CCRF-CEM leukemia): 188 nM
TGI (CCRF-CEM leukemia): 20800 nM
GI50 (SK-OV-3 ovarian): 263 nM
TGI (SK-OV-3 ovarian): 8700 nM
GI50 (CAKI-1 renal): 110 nM
TGI (CAKI-1 renal): 877 nM
GI50 (NCI/ADR-RES ovarian): 480 nM
TGI (NCI/ADR-RES ovarian): 12500 nM
GI50 (MALME-3M melanoma): 50.8 nM
TGI (MALME-3M melanoma): 234 nM
GI50 (HOP-62 NSCLC): 387 nM
TGI (HOP-62 NSCLC): 9900 nM
GI50 (786-0 renal): 448 nM
TGI (786-0 renal): 7860 nM
GI50 (MOLT-4 leukemia): 182 nM
TGI (MOLT-4 leukemia): 8640 nM
GI50 (SF-268 CNS): 324 nM
TGI (SF-268 CNS): 6350 nM
GI50 (OVCAR-4 ovarian): 195 nM
TGI (OVCAR-4 ovarian): 8150 nM
GI50 (HL-60(TB) leukemia): 195 nM
TGI (HL-60(TB) leukemia): 4410 nM
GI50 (SK-MEL-5 melanoma): 735 nM
TGI (SK-MEL-5 melanoma): 5050 nM
GI50 (NCI-H460 lung): 182 nM
TGI (NCI-H460 lung): 6490 nM
GI50 (MDA-MB-231 breast): 189 nM
TGI (MDA-MB-231 breast): 1140 nM
GI50 (M14 melanoma): 74.6 nM
TGI (M14 melanoma): 601 nM
GI50 (NCI-H522 lung): 204 nM
TGI (NCI-H522 lung): 9960 nM
GI50 (NCI-H23 lung): 485 nM
TGI (NCI-H23 lung): 9590 nM
GI50 (SF-539 CNS): 199 nM
TGI (SF-539 CNS): 2830 nM
GI50 (SNB-75 CNS): 643 nM
TGI (SNB-75 CNS): 6470 nM
GI50 (SF-295 CNS): 294 nM
TGI (SF-295 CNS): 9240 nM
GI50 (UO-31 renal): 140 nM
TGI (UO-31 renal): 1160 nM
GI50 (SW-620 colon): 226 nM
TGI (SW-620 colon): 5820 nM
GI50 (RXF 393 renal): 122 nM
TGI (RXF 393 renal): 567 nM
GI50 (COLO 205 colon): 190 nM
TGI (COLO 205 colon): 5330 nM
GI50 (SR leukemia): 149 nM
TGI (SR leukemia): 50000 nM
GI50 (OVCAR-8 ovarian): 425 nM
TGI (OVCAR-8 ovarian): 22200 nM
GI50 (A498 renal): 161 nM
TGI (A498 renal): 963 nM
GI50 (KM12 colon): 6.61 nM
TGI (KM12 colon): 6050 nM
GI50 (HT29 colon): 143 nM
TGI (HT29 colon): 6020 nM
GI50 (BT-549 breast): 1110 nM
TGI (BT-549 breast): 9830 nM
GI50 (UACC-257 melanoma): 339 nM
TGI (UACC-257 melanoma): 6510 nM
GI50 (T-47D breast): 983 nM
TGI (T-47D breast): 22300 nM
GI50 (NCI-H226 lung): 121 nM
TGI (NCI-H226 lung): 1940 nM
GI50 (HCT-15 colon): 184 nM
TGI (HCT-15 colon): 7530 nM
GI50 (OVCAR-5 ovarian): 417 nM
TGI (OVCAR-5 ovarian): 9270 nM
GI50 (MCF7 breast): 309 nM
TGI (MCF7 breast): 5760 nM
GI50 (K-562 leukemia): 5 nM
TGI (K-562 leukemia): 675 nM
GI50 (TK-10 renal): 679 nM
TGI (TK-10 renal): 11600 nM
GI50 (HCT-116 colon): 150 nM
TGI (HCT-116 colon): 2990 nM
GI50 (PC-3 prostate): 320 nM
TGI (PC-3 prostate): 10100 nM
GI50 (SN12C renal): 161 nM
TGI (SN12C renal): 5570 nM
GI50 (SK-MEL-2 melanoma): 114 nM
TGI (SK-MEL-2 melanoma): 451 nM
GI50 (DU-145 prostate): 273 nM
TGI (DU-145 prostate): 7950 nM
GI50 (UACC-62 melanoma): 103 nM
TGI (UACC-62 melanoma): 586 nM
GI50 (HCC-2998 colon): 963 nM
TGI (HCC-2998 colon): 9210 nM
GI50 (EKVX NSCLC): 1530 nM
TGI (EKVX NSCLC): 11300 nM
GI50 (ACHN renal): 119 nM
TGI (ACHN renal): 5270 nM
GI50 (SK-MEL-28 melanoma): 126 nM
TGI (SK-MEL-28 melanoma): 804 nM
GI50 (SNB-19 CNS): 1940 nM
TGI (SNB-19 CNS): 11900 nM
